Legend:
[1] = Epimerization of minocycline versus tigecycline lyophilized at pH about 5.0, HPLC; assay type: physicochemical; details: lyophilized at pH about 5.0, stored 4 days at 40° C. and 75% relative humidity
Procedure: In another experiment, minocycline was lyophilized at a pH of about 5.0 and the lyophilized cake was stored for 20 days at 40° C. and 75% relative humidity. At the end of the 20 days, the cake was analyzed by HPLC. The epimer of minocycline was measured to be present at a level of 2.65% by mass. By comparison, when tigecycline was lyophilized at a pH of about 5.0 and the sample stored under the same conditions, but for only 4 days followed by HPLC analysis, the tigecycline epimer was measured to be at a level of 5.40%, over twice as much even though tigecycline was only stressed for ⅕^th as long as minocycline. Thus, tigecycline epimerizes much more readily than minocycline, and epimerization is a much more significant problem with tigecycline than it is for minocycline.

[2] = test system: methicillin-resistant Staphylococcus aureus; details: cited from earlier work
[3] = pH of tigecycline dissolved in water prior to lyophilization; assay type: physicochemical
Procedure: Tigecycline has such a short admixture time and the reconstitution time is essentially zero because in solution, tigecycline oxidation is relatively rapid. Under current manufacturing, storage, and administration conditions, the most prevalent form of degradation is via oxidation. The reason oxidation is the most prevalent form of degradation in previous formulations relates to the chemical structure of tigecycline. […] When tigecycline is dissolved in water prior to lyophilization, the pH is slightly basic (about 7.8). This is higher than the pKa of the phenolic group on tigecycline. Thus, in both water and saline solutions, the phenolic group becomes deprotonated and more susceptible to reaction with oxygen which is why tigecycline compounding and lyophilization occur under a nitrogen blanket. Accordingly, care to avoid unnecessary exposure to oxygen must be taken by hospital staff during reconstitution and dilution.

[4] = existing composition, 1 mg/mL after dilution; cited from earlier work
[5] = test system: vancomycin-resistant enterococci; details: cited from earlier work
[6] = test system: penicillin-resistant Streptococcus pneumoniae; details: cited from earlier work
[7] = oral; cited from earlier work
bacteria = details: compared with tigecycline; cited from earlier work

CN(C)c1cc(NC(=O)CNC(C)(C)C)c(O)c2c1C[C@H]1C[C@H]3[C@H](N(C)C)C(O)=C(C(N)=O)C(=O)[C@@]3(O)C(O)=C1C2=O [Tigecycline]
level of the tigecycline epimer [1]: 5.40% | activity against methicillin-resistant Staphylococcus aureus [2]: active | pH of solution in water [3]: about 7.8 | time within which the diluted solution should be used [4]: ≤ 6 h | activity against vancomycin-resistant enterococci [5]: active | activity against penicillin-resistant Streptococcus pneumoniae [6]: active | bioavailability when given orally [7]: generally poor

CN(C)c1cc(NC(=O)CNC(C)(C)C)c(O)c2c1C[C@H]1C[C@H]3[C@@H](N(C)C)C(O)=C(C(N)=O)C(=O)[C@@]3(O)C(O)=C1C2=O [tigecycline epimer]
anti-bacterial efficacy (bacteria): lacks the anti-bacterial efficacy of tigecycline

— patent publication US9694078B2, “Tigecycline compositions and methods of preparation” (priority 2005, dated 2017)
